In the NIST ThermoML archive (doi:10.1016/j.fluid.2009.05.005):
± gives the expanded uncertainty stated by the source.

Columns and labels:
[1] = Excess molar heat capacity; xn = mol fraction of the nth substance listed; conditions: 298.15 K; 101 kPa; Liquid; Flow calorimetry; x2 = 0
[2] = activity coefficient (dimensionless); of the first substance listed, at infinite dilution; xn = mol fraction of the nth substance listed; conditions: 101 kPa, Liquid, circulation still, x1 = 0
[3] = 333.15 K, Rayleigh distillation
[4] = 343.15 K, Rayleigh distillation
[5] = 353.15 K, Rayleigh distillation

SMILES: O [water] + CN1CCCC1=O
- molar heat capacity [1]: 131 ± 2 J/K/mol

SMILES: CN1CCCC1=O [N-methylpyrrolidone] + O
- activity coefficient ([2]; 333.15 K, differential distillation): 1.34 ± 0.06
- activity coefficient ([2]; 343.15 K, differential distillation): 1.56 ± 0.06
- activity coefficient ([2]; 353.15 K, differential distillation): 1.75 ± 0.06
- activity coefficient ([2]; 372.85 K, differential distillation): 2.07 ± 0.1

SMILES: c1ccncc1 [pyridine] + O
- activity coefficient [2, 3]: 24 ± 0.1
- activity coefficient [2, 4]: 25.5 ± 0.1
- activity coefficient [2, 5]: 26 ± 0.1
- activity coefficient ([2]; 372.8 K, Rayleigh distillation): 25.4 ± 0.1

SMILES: C1CCNCC1 [piperidine] + O
- activity coefficient [2, 3]: 11.9 ± 0.1
- activity coefficient [2, 4]: 14.7 ± 0.1
- activity coefficient [2, 5]: 17.7 ± 0.1
- activity coefficient ([2]; 372.6 K, Rayleigh distillation): 21 ± 0.1
